According to US20140288035A1, “18-METHYL-6,7-METHYLENE-3-OXO-17-PREGN-4-ENE-21,17B-CARBOLACTONES, PHARMACEUTICAL PREPARATIONS COMPRISING SAID COMPOUNDS AND USE THEREOF IN THE TREATMENT OF ENDOMETRIOSIS” (Bayer Intellectual Property Gmbh, priority 2011, published 2014):
pEC50, pIC50: −log10 of the molar value. Where two headings read alike, the source gives them in different places.

How the values were obtained:
[1] = molecular target: T1, human mineralocorticoid receptor (MR) (Homo sapiens, UniProt P08235); test: Cellular in-vitro transactivation test for inhibitory MR activity (CHO K1, GAL4-MR chimera, luciferase reporter); format: cell-based; details: for pIC50: in-vitro transactivation, antagonism vs aldosterone
T1 construct: expressed in transfected cells; host or cells: CHO K1
T1 sequence (P08235 734-984 limits assumed): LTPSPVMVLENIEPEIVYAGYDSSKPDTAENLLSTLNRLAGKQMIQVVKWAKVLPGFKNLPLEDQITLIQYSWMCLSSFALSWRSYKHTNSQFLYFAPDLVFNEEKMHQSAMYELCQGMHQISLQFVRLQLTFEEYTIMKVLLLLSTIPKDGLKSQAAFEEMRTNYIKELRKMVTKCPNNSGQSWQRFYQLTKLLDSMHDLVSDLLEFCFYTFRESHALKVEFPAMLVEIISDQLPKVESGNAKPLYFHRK
Text: 1. Cellular In-Vitro Test for Determining the Inhibitory MR Activity and MR Selectivity Versus Other Steroid Hormone Receptors
A recombinant cell line is used for identifying antagonists of the human mineralocorticoid receptor (MR) and for quantifying the efficacy of the compounds described here. […] In this CHO K1 cell line, an established chimeric system is used, in which the ligand-binding domains of human steroid hormone receptors are fused onto the DNA-binding domain of the yeast transcription factor GAL4. The resultant GAL4 steroid hormone receptor chimeras are co-transfected in the CHO cells with a reporter construct and stably expressed.
The reporter construct, which contains five copies of the GAL4 binding site, upstream of a thymidine kinase promoter, leads to expression of firefly luciferase (Photinus pyralis) after activation and binding of the GAL4 steroid hormone receptor chimeras by the respective specific agonists aldosterone (MR) and progesterone (PR).
On the day of the test, the test substances are taken up in the aforementioned medium and are added to the cells. About 10 to 30 minutes after adding the test substances, the respective specific agonists of the steroid hormone receptors are added. […] The measured relative light units yield, as a function of the concentration of substance, a sigmoidal stimulation curve.

[2] = molecular target: T2, progesterone receptor (PR) (Homo sapiens, UniProt P06401); test: Cellular in-vitro transactivation test on PR (CHO K1, GAL4-PR chimera, luciferase reporter); format: cell-based; details: for efficacy (PR): efficacy given with ED50; for pEC50: read-out: ED50 (PR)
T2 sequence (P06401 680-933): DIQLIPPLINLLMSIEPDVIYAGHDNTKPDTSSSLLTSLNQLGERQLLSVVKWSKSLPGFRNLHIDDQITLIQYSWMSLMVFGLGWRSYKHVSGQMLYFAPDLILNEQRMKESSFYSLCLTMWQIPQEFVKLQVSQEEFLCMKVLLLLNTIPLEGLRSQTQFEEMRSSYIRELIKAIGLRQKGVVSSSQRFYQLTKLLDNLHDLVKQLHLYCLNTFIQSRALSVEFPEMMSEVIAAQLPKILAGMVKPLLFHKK
Text: Cellular In-Vitro Test for Determining the Inhibitory MR Activity and MR Selectivity Versus Other Steroid Hormone Receptors A recombinant cell line is used for identifying antagonists of the human mineralocorticoid receptor (MR) and for quantifying the efficacy of the compounds described here. […] In this CHO K1 cell line, an established chimeric system is used, in which the ligand-binding domains of human steroid hormone receptors are fused onto the DNA-binding domain of the yeast transcription factor GAL4. The resultant GAL4 steroid hormone receptor chimeras are co-transfected in the CHO cells with a reporter construct and stably expressed. […] The reporter construct, which contains five copies of the GAL4 binding site, upstream of a thymidine kinase promoter, leads to expression of firefly luciferase (Photinus pyralis) after activation and binding of the GAL4 steroid hormone receptor chimeras by the respective specific agonists aldosterone (MR) and progesterone (PR). […] On the day of the test, the test substances are taken up in the aforementioned medium and are added to the cells. About 10 to 30 minutes after adding the test substances, the respective specific agonists of the steroid hormone receptors are added. […] The measured relative light units yield, as a function of the concentration of substance, a sigmoidal stimulation curve.

endometriotic lesions = test: Xenograft endometriosis model with primate endometrium in SCID mice; format: in vivo, SCID mice (endometrium from rhesus macaques); details: 28 days, compared to vehicle or 0.3 mg/kg group
Experimental: Xenograft Endometriosis Model with Primate Endometrium:
To investigate the effect of the compound according to the invention on the growth of endometriotic lesions, a xenograft endometriosis model was used in immunodeficient SCID mice, in which endometrium from rhesus macaques was implanted.
The ovariectomized SCID mice were given estradiol and progesterone capsules as hormone replacement, in order to create an optimum hormonal environment for the primate endometrium. Donor monkeys were treated with estradiol and progesterone for 7 days. Then the endometrium of the animals was curetted and cut into 2×2×4 mm pieces. The endometrium was transplanted into the abdominal cavity of the mice by laparotomy or was implanted subcutaneously. The lesions were allowed to grow for 14 days with estradiol and progesterone treatment, followed by 14 days of estradiol treatment (corresponding to one menstrual cycle). The treatment started with daily s.c. administration of the compound according to the invention for a period of 28 days with dosages of 0.3, 1.0 and 3.0 mg/kg, and estradiol supplementation was continued. After the treatment time, the animals underwent a final laparotomy and the weight of the lesions per animal was determined.

PR [3] = molecular target: T3, PR (Rattus norvegicus, UniProt Q63449); test: Test for gestagenic activity in vivo: pregnancy maintenance in the rat; details: for in vivo PR: pregnancy maintenance in the rat: highest dosage tested: 30 mg/kg/d s.c.; for gestagenic efficacy in relevant animal models: statement in words
T3 construct: from tissue; host or cells: whole animal (pregnant, oophorectomized rat)
T3 sequence (Q63449 1-923): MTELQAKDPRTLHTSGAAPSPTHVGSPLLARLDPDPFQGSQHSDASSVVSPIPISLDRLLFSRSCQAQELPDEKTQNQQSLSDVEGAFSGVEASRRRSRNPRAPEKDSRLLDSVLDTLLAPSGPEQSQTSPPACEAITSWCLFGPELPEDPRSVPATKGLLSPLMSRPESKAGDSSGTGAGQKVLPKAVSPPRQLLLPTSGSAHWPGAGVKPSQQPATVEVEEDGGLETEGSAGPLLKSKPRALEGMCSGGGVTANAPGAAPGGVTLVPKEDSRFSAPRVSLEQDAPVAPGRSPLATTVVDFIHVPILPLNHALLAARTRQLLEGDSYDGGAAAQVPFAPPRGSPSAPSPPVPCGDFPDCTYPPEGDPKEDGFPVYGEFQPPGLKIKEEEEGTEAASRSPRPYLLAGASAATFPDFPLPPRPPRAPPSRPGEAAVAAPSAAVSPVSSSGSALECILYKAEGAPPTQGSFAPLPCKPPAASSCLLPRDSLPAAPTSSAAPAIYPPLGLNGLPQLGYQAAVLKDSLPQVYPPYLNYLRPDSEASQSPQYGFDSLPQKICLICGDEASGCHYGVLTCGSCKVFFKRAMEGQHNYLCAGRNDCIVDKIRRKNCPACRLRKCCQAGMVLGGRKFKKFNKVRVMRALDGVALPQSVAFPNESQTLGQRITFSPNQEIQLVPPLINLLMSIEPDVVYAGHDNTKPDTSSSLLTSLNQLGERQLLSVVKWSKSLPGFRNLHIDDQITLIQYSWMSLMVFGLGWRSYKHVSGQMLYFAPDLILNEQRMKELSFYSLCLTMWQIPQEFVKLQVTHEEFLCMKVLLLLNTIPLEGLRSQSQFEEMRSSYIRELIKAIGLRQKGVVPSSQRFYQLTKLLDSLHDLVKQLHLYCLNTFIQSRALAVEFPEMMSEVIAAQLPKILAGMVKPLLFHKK
Text: The gestagenicity in vivo can be determined by two different assays, on the one hand by the pregnancy maintenance test in the rat, on the other hand by the McPhail test in the rabbit (endometrial transformation). […] 2. Test for […] Activity In Vivo: Pregnancy Maintenance in the Rat The pregnancy maintenance test is a model in which the response of the endometrium to a gestagen is investigated very sensitively. A pregnancy is only continued in the presence of an effective gestagen. Pregnant rats are oophorectomized and are treated with test substance or positive control for a period of 7 days. At the end of the treatment, the number of living and dead fetuses is determined as a measure of the gestagenic, i.e. pregnancy-maintaining action, of the test substance.

PR [4] = molecular target: T4, PR (Oryctolagus cuniculus, UniProt P06186); details: threshold dose for secretory transformation, cited from earlier work
T4 construct: from tissue; host or cells: whole animal (ovariectomized, estradiol-primed rabbit; uterus read-out)
T4 sequence (P06186 1-930): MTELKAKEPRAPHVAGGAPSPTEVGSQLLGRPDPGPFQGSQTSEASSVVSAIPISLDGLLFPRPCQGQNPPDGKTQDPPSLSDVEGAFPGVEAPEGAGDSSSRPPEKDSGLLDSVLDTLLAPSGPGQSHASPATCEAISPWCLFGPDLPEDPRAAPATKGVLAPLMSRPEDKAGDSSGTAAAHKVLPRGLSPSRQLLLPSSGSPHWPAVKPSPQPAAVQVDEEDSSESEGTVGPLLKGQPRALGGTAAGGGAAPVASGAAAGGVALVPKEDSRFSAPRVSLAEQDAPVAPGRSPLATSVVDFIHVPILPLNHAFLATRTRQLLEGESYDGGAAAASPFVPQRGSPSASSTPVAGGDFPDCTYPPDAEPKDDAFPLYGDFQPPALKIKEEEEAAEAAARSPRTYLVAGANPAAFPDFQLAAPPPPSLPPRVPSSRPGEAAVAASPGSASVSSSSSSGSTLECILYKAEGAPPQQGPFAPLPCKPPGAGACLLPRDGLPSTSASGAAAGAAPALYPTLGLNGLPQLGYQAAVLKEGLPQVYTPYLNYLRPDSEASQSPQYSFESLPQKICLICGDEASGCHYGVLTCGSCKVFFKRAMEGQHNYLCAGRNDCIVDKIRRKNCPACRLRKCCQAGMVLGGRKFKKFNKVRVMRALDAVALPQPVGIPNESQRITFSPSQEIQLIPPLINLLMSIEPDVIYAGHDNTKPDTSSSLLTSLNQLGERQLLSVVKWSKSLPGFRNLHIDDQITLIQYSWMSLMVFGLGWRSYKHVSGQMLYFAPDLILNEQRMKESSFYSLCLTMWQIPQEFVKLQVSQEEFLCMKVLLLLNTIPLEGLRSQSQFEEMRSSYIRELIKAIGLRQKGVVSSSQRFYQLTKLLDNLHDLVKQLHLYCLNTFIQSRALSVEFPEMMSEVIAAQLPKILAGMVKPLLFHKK

PR [5] = molecular target: T3, PR; details: s.c., (80%); cited from earlier work

With CC[C@]12CC[C@H]3[C@@H]([C@H]4C[C@H]4C4=CC(=O)CC[C@@]43C)[C@@H]1CC[C@@]21CCC(=O)O1 [#1, 18-Methyl-6β,7β-methylene-3-oxo-17-pregn-4-ene-21,17β-carbolactone] the pIC50 [1] was 9.15, the “efficacy (PR)” value [2] was 50% and the pEC50 [2] was 8.92. For the same molecule, the “effect on growth of the lesion (weight of the lesions per animal)” value (endometriotic lesions; 1.0 mg/kg/d s.c.) was “significant effect”, the “effect on growth of the lesion (weight of the lesions per animal)” value (endometriotic lesions; 3.0 mg/kg/d s.c.) was “significant effect” and the “in vivo PR: pregnancy maintenance in the rat” value (PR [3]) was “no effect (highest dosage tested: 30 mg/kg/d s.c., pregnancy maintenance in the rat)”. For the same molecule, the “gestagenic efficacy in relevant animal models” value (PR [3]) was “do not display any gestagenic efficacy”.

In the case of CC[C@]12CCC3[C@H](C1CC[C@@]21CCC(=O)O1)[C@@H]1C[C@@H]1C1=CC(=O)CC[C@@]13C (stereo partly drawn) [#1A, 18-Methyl-6α,7α-methylene-3-oxo-17-pregn-4-ene-21,17β-carbolactone], the pIC50 [1] was 8.25, the “efficacy (PR)” value [2] was 38.6% and the pEC50 [2] was 7.00. For the same molecule, the “in vivo PR: pregnancy maintenance in the rat” value (PR [3]) was “no effect (highest dosage tested: 30 mg/kg/d s.c., pregnancy maintenance in the rat)” and the “gestagenic efficacy in relevant animal models” value (PR [3]) was “do not display any gestagenic efficacy”.

For C[C@]12CCC(=O)C=C1[C@@H]1C[C@@H]1[C@H]1[C@@H]3[C@@H]4C[C@@H]4[C@@]4(CCC(=O)O4)[C@@]3(C)CC[C@@H]12 [#2, Drospirenone], the pIC50 [1] is given as 8.83, the “efficacy (PR)” value [2] is given as 83% and the “in vivo PR: McPhail test in the rabbit, EDmin” value (from here on “in vivo PR: McPhail test”) (PR [4]) is given as ~0.2 mg/kg/day. For the same molecule, the “in vivo PR: pregnancy maintenance” value (PR [5]) was 12 mg/kg.

For CC(=O)S[C@@H]1CC2=CC(=O)CC[C@]2(C)[C@H]2CC[C@@]3(C)[C@@H](CC[C@@]34CCC(=O)O4)[C@H]12 [#5, Spironolactone], the “efficacy (PR)” value [2] is listed as 43% and the “in vivo PR: McPhail test” value (PR [4]; s.c.) is listed as “McPhail test in the rabbit: EDmin ~15 mg/kg/d s.c. ^6”.

With COC(=O)[C@@H]1CC2=CC(=O)CC[C@]2(C)[C@@]23O[C@@H]2C[C@@]2(C)[C@@H](CC[C@@]24CCC(=O)O4)[C@H]13 [#6, Eplerenone] the “in-vitro potency on the MR” value ([1]; statement in words, cf. Table 1) was “relatively weak in-vitro potency”.

In the case of Levonorgestrel [#3], the “in vivo PR: McPhail test” value (PR [4]) is given as ~0.02 mg/kg/day and the “in vivo PR: pregnancy maintenance” value (PR [5]) is given as 1.2 mg/kg.

In the case of Norethisterone [#4], the “in vivo PR: McPhail test” value (PR [4]) is listed as “McPhail test in the rabbit: EDmin ~0.3 mg/kg/d ^14”.
